Where two headings read alike, the source gives them in different places.
Key:
[1] = target: T1, human serotonin 5-HT1A receptor (Homo sapiens, UniProt P08908); experiment: Competition radioligand binding, [3H]-8-OH-DPAT, HEK293 membranes; details: for inhibition at 10 µM: read-out: % inh. at 10 μM 5-HT1A; for Ki: human cloned 5-HT1A
T1 construct: expressed in transfected cells; host or cells: HEK293
T1 sequence (P08908 1-422): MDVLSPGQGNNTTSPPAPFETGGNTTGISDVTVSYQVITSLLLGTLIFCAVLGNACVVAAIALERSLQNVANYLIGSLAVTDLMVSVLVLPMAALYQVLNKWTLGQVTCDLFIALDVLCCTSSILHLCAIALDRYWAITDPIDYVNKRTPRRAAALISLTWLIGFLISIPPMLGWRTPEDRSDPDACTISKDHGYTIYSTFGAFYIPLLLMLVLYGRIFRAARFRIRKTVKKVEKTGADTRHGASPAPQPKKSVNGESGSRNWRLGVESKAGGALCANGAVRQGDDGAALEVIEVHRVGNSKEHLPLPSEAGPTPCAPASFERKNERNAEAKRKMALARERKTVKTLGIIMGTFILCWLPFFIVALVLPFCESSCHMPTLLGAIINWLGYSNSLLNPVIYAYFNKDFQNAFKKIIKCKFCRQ
Procedure: (§1) Experiments were carried out in membranes from cell lines stably expressing the human cloned receptors.
(§2) Competition radioligand binding assays were performed on membranes isolated from cell lines stable expressing the cloned human receptors, which were either in-house or commercially available. […] Assays (250 μL assay final volume) were carried out in 96-well polypropylene plates in duplicate. In short, suspension of appropriate membrane protein was incubated in assay buffer with addition of the corresponding radioligand, in the presence or absence of tested compound or reference compound. […] After the incubation, the content of the test plates was transferred to 96-well plates with glass fibre filter GF/B or GF/C, previously pre-treated with polyethyleneimine (PEI), and rapidly filtered with the use of vacuum, followed by rapid washing with cold (4 °C) wash buffer. After that the filter plates were dried at 60 °C for 1 h. Then, 30 μL of liquid scintillation cocktail (UniverSol-ES, MP Biomedicals, Solon, OH) was added to each well of the filter plates and the radioactivity was measured in a MicroBeta2 microplate scintillation counter (PerkinElmer, Madrid, Spain).
(§3) Competition binding curves were fitted to a one-site competition binding model (Fit Ki) with the use of Prism 7 software (GraphPad, San Diego, CA). logKi (log of the equilibrium dissociation constant (Ki)) values were obtained after constraining the concentration of radioligand employed in the assay and its dissociation constant (KD) as determined in saturation radioligand binding assays.

[2] = target: T2, human serotonin 5-HT2A receptor (Homo sapiens, UniProt P28223); experiment: Competition radioligand binding, [3H]-Ketanserin, CHO-K1 membranes; details: for inhibition at 10 µM: read-out: % inh. at 10 μM 5-HT2A; for Ki: human cloned 5-HT2A; for pKi 5-HT2A/pKi D2: ratio of pKi values
T2 construct: expressed in transfected cells; host or cells: CHO-K1
Procedure: as §1, §2, §3

[3] = target: T3, human dopamine D2 (D2S) receptor (Homo sapiens, UniProt P14416); experiment: Competition radioligand binding, [3H]-spiperone, CHO-K1 membranes; details: for inhibition at 10 µM: read-out: % inh. at 10 μM D2; for Ki: human cloned D2S
T3 construct: expressed in transfected cells; host or cells: CHO-K1
Procedure: as §1, §2, §3

human 5-HT2A receptor = target: T4, human 5-HT2A receptor (Homo sapiens, UniProt P28223); experiment: Functional assay of inositol phosphate production (5-HT2A antagonism), CHO-K1 cells; type: cell-based; details: for inhibition at 10 µM: CHO-K1, read-out: 5-HT2A antagonism %inh. of 5-HT response; for Kb: read-out: 5-HT2A antagonism (IP signalling) Kb
T4 construct: expressed in transfected cells; host or cells: CHO-K1
Procedure: The activity of selected compounds at 5-HT2A receptors was investigated in cell-based functional assays of IP production in the CHO-K1 cell line stably expressing the cloned human 5-HT2A receptor also employed for the radioligand binding assays. Twenty-four hours before the experiment, cells in culture were seeded in complete growth medium prepared with dialysed foetal bovine serum, in half-area, white, 96-well tissue culture plates (Corning®, Fisher Scientific SL, Madrid, Spain). At the day of assay, plates were washed with assay buffer (kit stimulation buffer) and incubated with test compounds for 10 min at 37 °C. Test compounds were added to the assay plates from 7× working dilution intermediate plates that were prepared by means of acoustic noncontact dispensing of the compounds, keeping vehicle concentration (0.1% DMSO) constant in the assay. […] After this time, cellular IP levels were quantified by using the HTRF-based inositol monophosphate kit IP-One Gq kit (Cisbio, Bioassays, Codolet, France) following the manufacturer’s protocol. […] Basal IP levels were determined in control wells in the absence of compound and agonist. […] Kb value of the compounds was estimated as described above for functional assays of cAMP signalling at D2 receptors.

[4] = target: T5, human histamine H1 receptor (Homo sapiens, UniProt P35367); experiment: Competition radioligand binding, [3H]-pyrilamine, CHO-K1 membranes
T5 construct: expressed in transfected cells; host or cells: CHO-K1
Procedure: (§4) Competition radioligand binding assays were performed on membranes isolated from cell lines stable expressing the cloned human receptors, which were either in-house or commercially available. […] Assays (250 μL assay final volume) were carried out in 96-well polypropylene plates in duplicate. In short, suspension of appropriate membrane protein was incubated in assay buffer with addition of the corresponding radioligand, in the presence or absence of tested compound or reference compound. […] Then, 30 μL of liquid scintillation cocktail (UniverSol-ES, MP Biomedicals, Solon, OH) was added to each well of the filter plates and the radioactivity was measured in a MicroBeta2 microplate scintillation counter (PerkinElmer, Madrid, Spain).
as §3

[5] = target: T6, human muscarinic M1 receptor (Homo sapiens, UniProt P11229); experiment: Competition radioligand binding, [3H]-pirenzepine, CHO-K1 membranes; details: read-out: % inh. at 10 μM M1
T6 construct: expressed in transfected cells; host or cells: CHO-K1
T6 sequence (P11229 1-460): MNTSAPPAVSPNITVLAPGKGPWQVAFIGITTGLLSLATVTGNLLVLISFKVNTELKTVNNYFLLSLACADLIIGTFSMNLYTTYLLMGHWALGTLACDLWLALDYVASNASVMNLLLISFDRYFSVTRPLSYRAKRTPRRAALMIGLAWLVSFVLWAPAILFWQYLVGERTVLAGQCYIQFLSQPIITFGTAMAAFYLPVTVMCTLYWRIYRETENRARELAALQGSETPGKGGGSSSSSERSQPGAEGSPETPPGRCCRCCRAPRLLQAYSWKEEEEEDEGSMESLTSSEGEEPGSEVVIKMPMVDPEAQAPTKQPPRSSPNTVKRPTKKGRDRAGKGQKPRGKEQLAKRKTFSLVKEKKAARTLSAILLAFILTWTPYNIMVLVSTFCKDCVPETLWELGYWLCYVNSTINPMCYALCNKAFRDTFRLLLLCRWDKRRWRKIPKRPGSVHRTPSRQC
Procedure: as §4, §3

human 5-HT7 receptor = target: T7, human 5-HT7 receptor (Homo sapiens, UniProt P34969); experiment: Competition radioligand binding, [3H]-SB269970, HEK293 membranes
T7 construct: expressed in transfected cells; host or cells: HEK293
Procedure: as §4, §3

human 5-HT1A receptor = target: T8, human 5-HT1A receptor (Homo sapiens, UniProt P08908); experiment: Functional assay of cAMP signalling (5-HT1A agonism), HEK293 cells; type: cell-based; details: for inhibition at 10 µM: HEK293, 10 µM compound, 1 µM forskolin, read-out: 5-HT1A agonism %inh. of FSK response
T8 construct: expressed in transfected cells; host or cells: HEK293
T8 sequence (P08908 1-422): T1 sequence (P08908 1-422)
Procedure: The activity of selected compounds at 5-HT1A receptor was investigated in cell-based functional assays of cAMP signalling in the HEK293 cell line stably expressing the cloned human 5-HT1A receptor also employed for the radioligand binding assays. […] Test compounds were added to the assay plates from 5× working dilution intermediate plates, which were prepared by means of acoustic noncontact dispensing of the compounds, keeping vehicle concentration (0.1% DMSO) constant in the assay.

[6] = target: T9, human dopamine D3 receptor (Homo sapiens, UniProt P35462); experiment: Competition radioligand binding, [3H]-spiperone, CHO-K1 membranes
T9 construct: expressed in transfected cells; host or cells: CHO-K1
Procedure: as §4, §3

human D2S receptor = human D2S receptor (Homo sapiens, UniProt P14416); experiment: Functional assay of cAMP signalling (D2 antagonism), CHO-K1 cells; details: for inhibition at 1 µM: CHO-K1, read-out: % of inhibition of 1 µM dopamine response; for inhibition at 10 µM: CHO-K1, read-out: D2 antagonism %inh. of DA response
mice [7] = experiment: Amphetamine-induced hyperactivity; details: p < 0.0001
mice [8] = experiment: Elevated plus maze (EPM) test (anxiety); details: 40 mg/kg i.p., 60 min before test
mice [9] = experiment: Passive avoidance (PA) test (memory); details: 40 mg/kg i.p., 60 min before test
mice [10] = experiment: Rota-rod test (motor coordination); type: in vivo; details: 20, 40, and 80 mg/kg i.p., 60 min after treatment, 3 min
Procedure: To fully assess the impact of selected compounds on animals’ motor coordination, both compounds (at the same doses as were used for spontaneous locomotor activity measurements) were tested also in the rota-rod test. The applied protocol has been already validated in our laboratory[12]^,[62]^,[63]. […] The time spent by each mouse on the rota-rod was measured for 3 min. The additional aim of the rota-rod test was to confirm the appropriate selection of doses for further behavioural examination. […] After such confirmation, the above-mentioned doses were chosen for the rest of behavioural tests.

[11] = target: T10, human dopamine D1 receptor (Homo sapiens, UniProt P21728); experiment: Competition radioligand binding, [3H]-SCH-23390, CHO-K1 membranes
T10 construct: expressed in transfected cells; host or cells: CHO-K1
Procedure: as §4, §3

mice [12] = experiment: Spontaneous locomotor activity; details: 20, 40, and 80 mg/kg i.p., recorded 30 min, 30 min after injection
[13] = read-out: Ki 5-HT1A (converted)
[14] = mean ± SEM, read-out: pKi D2 (converted)

T2 sequence (P28223 whole entry): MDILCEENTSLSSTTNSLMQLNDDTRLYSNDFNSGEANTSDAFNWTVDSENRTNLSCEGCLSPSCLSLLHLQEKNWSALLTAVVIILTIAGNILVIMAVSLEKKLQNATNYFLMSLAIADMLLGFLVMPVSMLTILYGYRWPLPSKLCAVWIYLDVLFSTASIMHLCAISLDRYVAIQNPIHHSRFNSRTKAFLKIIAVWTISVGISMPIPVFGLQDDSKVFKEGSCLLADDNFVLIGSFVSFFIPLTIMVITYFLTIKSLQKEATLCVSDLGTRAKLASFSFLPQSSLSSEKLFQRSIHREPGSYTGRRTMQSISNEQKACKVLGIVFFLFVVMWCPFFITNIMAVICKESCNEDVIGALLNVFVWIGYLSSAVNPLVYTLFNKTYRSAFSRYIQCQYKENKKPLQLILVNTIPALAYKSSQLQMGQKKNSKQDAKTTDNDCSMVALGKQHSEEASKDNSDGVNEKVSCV
T4 sequence (P28223 whole entry): as above
T3 sequence (P14416 1-414 isoform P14416-2): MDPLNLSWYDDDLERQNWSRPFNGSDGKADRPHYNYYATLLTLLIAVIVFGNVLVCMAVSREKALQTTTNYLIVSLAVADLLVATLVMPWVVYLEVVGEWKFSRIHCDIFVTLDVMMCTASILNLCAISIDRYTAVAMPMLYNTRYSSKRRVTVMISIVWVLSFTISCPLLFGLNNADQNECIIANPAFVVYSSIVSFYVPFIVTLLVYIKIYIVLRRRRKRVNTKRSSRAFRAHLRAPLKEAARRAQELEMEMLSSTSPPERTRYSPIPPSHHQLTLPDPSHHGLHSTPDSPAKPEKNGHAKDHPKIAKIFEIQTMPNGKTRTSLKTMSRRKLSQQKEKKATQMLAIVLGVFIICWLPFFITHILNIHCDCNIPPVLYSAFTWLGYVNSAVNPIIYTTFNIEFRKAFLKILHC
Chain of human D2S receptor (P14416 1-414 isoform P14416-2): as above
T9 sequence (P35462 whole entry): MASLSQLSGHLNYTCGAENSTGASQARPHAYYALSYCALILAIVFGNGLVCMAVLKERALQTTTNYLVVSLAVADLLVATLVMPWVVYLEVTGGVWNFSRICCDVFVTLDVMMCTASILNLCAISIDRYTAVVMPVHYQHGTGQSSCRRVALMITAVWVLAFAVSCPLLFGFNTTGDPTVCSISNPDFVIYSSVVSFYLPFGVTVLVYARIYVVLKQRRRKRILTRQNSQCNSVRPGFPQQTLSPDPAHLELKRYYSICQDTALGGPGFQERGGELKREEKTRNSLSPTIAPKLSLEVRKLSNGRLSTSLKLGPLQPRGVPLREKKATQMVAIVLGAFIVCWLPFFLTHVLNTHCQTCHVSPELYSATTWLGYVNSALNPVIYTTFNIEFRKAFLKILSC
T7 sequence (P34969 whole entry): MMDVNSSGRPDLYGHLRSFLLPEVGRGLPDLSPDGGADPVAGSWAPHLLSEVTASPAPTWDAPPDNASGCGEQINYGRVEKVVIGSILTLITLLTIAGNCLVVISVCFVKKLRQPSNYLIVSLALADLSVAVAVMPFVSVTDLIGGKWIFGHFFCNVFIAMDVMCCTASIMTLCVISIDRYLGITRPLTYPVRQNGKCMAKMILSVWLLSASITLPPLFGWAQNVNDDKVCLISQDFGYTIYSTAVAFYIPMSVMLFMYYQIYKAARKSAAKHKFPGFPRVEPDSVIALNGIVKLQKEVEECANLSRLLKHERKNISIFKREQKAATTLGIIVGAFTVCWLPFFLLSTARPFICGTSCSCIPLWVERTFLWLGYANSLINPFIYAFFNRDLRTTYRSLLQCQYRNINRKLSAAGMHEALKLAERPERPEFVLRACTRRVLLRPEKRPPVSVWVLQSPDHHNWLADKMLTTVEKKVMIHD
T5 sequence (P35367 whole entry): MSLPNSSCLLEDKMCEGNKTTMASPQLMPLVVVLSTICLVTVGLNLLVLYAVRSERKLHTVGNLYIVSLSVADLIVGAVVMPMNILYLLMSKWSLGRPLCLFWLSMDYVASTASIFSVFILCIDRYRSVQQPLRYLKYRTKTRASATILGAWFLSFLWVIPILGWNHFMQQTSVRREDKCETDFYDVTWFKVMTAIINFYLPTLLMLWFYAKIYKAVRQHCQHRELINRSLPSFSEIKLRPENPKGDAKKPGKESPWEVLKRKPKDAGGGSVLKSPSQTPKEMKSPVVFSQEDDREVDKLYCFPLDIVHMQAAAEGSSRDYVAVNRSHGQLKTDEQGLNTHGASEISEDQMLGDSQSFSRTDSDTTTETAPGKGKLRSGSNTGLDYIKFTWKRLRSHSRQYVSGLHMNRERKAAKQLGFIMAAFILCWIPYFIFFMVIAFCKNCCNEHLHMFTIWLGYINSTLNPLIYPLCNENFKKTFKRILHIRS
T10 sequence (P21728 whole entry): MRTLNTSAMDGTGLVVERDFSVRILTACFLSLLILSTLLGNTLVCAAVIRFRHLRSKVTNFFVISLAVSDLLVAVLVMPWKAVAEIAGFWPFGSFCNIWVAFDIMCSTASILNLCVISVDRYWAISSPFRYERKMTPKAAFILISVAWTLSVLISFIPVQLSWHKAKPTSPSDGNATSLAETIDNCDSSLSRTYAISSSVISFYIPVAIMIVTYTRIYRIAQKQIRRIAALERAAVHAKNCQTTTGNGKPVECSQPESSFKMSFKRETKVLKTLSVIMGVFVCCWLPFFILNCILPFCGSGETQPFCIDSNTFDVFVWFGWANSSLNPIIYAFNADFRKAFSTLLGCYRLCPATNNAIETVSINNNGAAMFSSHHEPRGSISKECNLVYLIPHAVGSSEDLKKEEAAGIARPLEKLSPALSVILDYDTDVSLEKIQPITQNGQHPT

O=C(NCCCN1CCN(c2ccncc2)CC1)c1n[nH]c2ccccc12 [Compound 7, N-(3-(4-(pyridin-4-yl)piperazin-1-yl)propyl)-1H-indazole-3-carboxamide]
inhibition at 10 µM [1]: 27.9 ± 2.7% | inhibition at 10 µM [2]: 0% | inhibition at 10 µM [3]: 0%

O=C(NCCCN1CCN(c2ccc(F)cc2)CC1)c1n[nH]c2ccccc12 [Compound 11, N-(3-(4-(4-fluorophenyl)piperazin-1-yl)propyl)-1H-indazole-3-carboxamide]
Ki [1, 13]: 607 nM | Ki [2]: 12.6 nM | pKi 5-HT2A/pKi D2 [2]: 1.24 | inhibition at 10 µM (human 5-HT2A receptor): 103 ± 2.2% | Kb (human 5-HT2A receptor): 19.2 ± 7.2 nM | Ki [4]: 364 nM | inhibition at 10 µM [5]: 0% | Ki (human 5-HT7 receptor): 196 nM | Ki ([3]; read-out: Ki D2 (converted)): 450 nM | EC50 (human 5-HT1A receptor): 5600 ± 1200 nM | inhibition at 10 µM (human 5-HT1A receptor): 75.3 ± 6.8% | Ki [6]: 5010 nM | Kb (human D2S receptor): 99.1 nM | inhibition at 1 µM (human D2S receptor): 21.3 ± 4.3% | inhibition at 10 µM (human D2S receptor): 49.7 ± 8%

O=C(NCCCN1CCN(c2ccccc2C(F)(F)F)CC1)c1n[nH]c2ccccc12 [Compound 12, N-(3-(4-(2-(trifluoromethyl)phenyl)piperazin-1-yl)propyl)-1H-indazole-3-carboxamide]
Ki [1, 13]: 423 nM | Ki [2]: 832 nM | pKi 5-HT2A/pKi D2 [2]: 0.83 | Ki [3, 14]: 44.7 nM | Ki ([3]; read-out: Ki D2 (converted)): 45.2 nM

O=C(NCCCN1CCN(c2ccccn2)CC1)c1n[nH]c2ccccc12 [Compound 5, N-(3-(4-(pyridin-2-yl)piperazin-1-yl)propyl)-1H-indazole-3-carboxamide]
Ki [1, 13]: 113 nM | Ki [2]: 132 nM | pKi 5-HT2A/pKi D2 [2]: 1.06 | Ki ([3]; read-out: Ki D2 (converted)): 339 nM

O=C(NCCCN1CCN(C2CCCCC2)CC1)c1n[nH]c2ccccc12 [Compound 16, N-(3-(4-cyclohexylpiperazin-1-yl)propyl)-1H-indazole-3-carboxamide]
inhibition at 10 µM [1]: 56.7 ± 1.6% | inhibition at 10 µM [2]: 25.6 ± 9% | inhibition at 10 µM [3]: 19 ± 6.8%

COc1cccc(N2CCN(CCCNC(=O)c3n[nH]c4ccccc34)CC2)c1 [Compound 3, N-(3-(4-(3-methoxyphenyl)piperazin-1-yl)propyl)-1H-indazole-3-carboxamide]
Ki [1, 13]: 110 nM | Ki [2]: 184 nM | pKi 5-HT2A/pKi D2 [2]: 1.04 | Ki ([3]; read-out: Ki D2 (converted)): 315 nM

O=C(NCCCN1CCN(c2ccccc2Cl)CC1)c1n[nH]c2ccccc12 [Compound 13, N-(3-(4-(2-chlorophenyl)piperazin-1-yl)propyl)-1H-indazole-3-carboxamide]
Ki [1, 13]: 107 nM | Ki [2]: 134 nM | pKi 5-HT2A/pKi D2 [2]: 0.96 | Ki ([3]; read-out: Ki D2 (converted)): 69.7 nM

COc1ccc(N2CCN(CCCNC(=O)c3n[nH]c4ccccc34)CC2)cc1 [Compound 4, N-(3-(4-(4-methoxyphenyl)piperazin-1-yl)propyl)-1H-indazole-3-carboxamide]
inhibition at 10 µM [1]: 58.4 ± 1.8% | Ki [2]: 491 nM | inhibition at 10 µM [3]: 46 ± 6%

CCOc1ccccc1N1CCN(CCCNC(=O)c2n[nH]c3ccccc23)CC1 [Compound 15, N-(3-(4-(2-ethoxyphenyl)piperazin-1-yl)propyl)-1H-indazole-3-carboxamide]
Ki [1, 13]: 46.9 nM | Ki [2]: 280 nM | pKi 5-HT2A/pKi D2 [2]: 0.85 | Ki ([3]; read-out: Ki D2 (converted)): 19.8 nM

O=C(NCCCN1CCN(c2cccnc2)CC1)c1n[nH]c2ccccc12 [Compound 6, N-(3-(4-(pyridin-3-yl)piperazin-1-yl)propyl)-1H-indazole-3-carboxamide]
Ki [1, 13]: 1380 nM | Ki [2]: 2650 nM | pKi 5-HT2A/pKi D2 [2]: 0.93 | Ki ([3]; read-out: Ki D2 (converted)): 1010 nM

O=C(NCCCN1CCN(c2ccccc2F)CC1)c1n[nH]c2ccccc12 [Compound 9, N-(3-(4-(2-fluorophenyl)piperazin-1-yl)propyl)-1H-indazole-3-carboxamide]
Ki [1, 13]: 135 nM | Ki [2]: 117 nM | pKi 5-HT2A/pKi D2 [2]: 0.94 | Ki [3, 14]: 41.7 nM | Ki ([3]; read-out: Ki D2 (converted)): 42.2 nM

COc1ccccc1N1CCN(CCCNC(=O)c2n[nH]c3ccccc23)CC1 [Compound 2, N-(3-(4-(2-methoxyphenyl)piperazin-1-yl)propyl)-1H-indazole-3-carboxamide]
Ki [1, 13]: 22.9 nM | Ki [2]: 372 nM | pKi 5-HT2A/pKi D2 [2]: 0.84 | Ki ([3]; read-out: Ki D2 (converted)): 22.7 nM

CSc1ccccc1N1CCN(CCCNC(=O)c2n[nH]c3ccccc23)CC1 [Compound 14, N-(3-(4-(2-(methylthio)phenyl)piperazin-1-yl)propyl)-1H-indazole-3-carboxamide]
Ki [1, 13]: 12.4 nM | Ki [2]: 217 nM | pKi 5-HT2A/pKi D2 [2]: 0.82 | Ki ([3]; read-out: Ki D2 (converted)): 7.05 nM

CC(N)Cc1ccccc1 (stereo not shown) [amphetamine, reference compound]
Locomotor activity vs. vehicle group (mice [7]; 5 mg/kg s.c., recorded 30 min): increased locomotor activity

O=C(NCCCN1CCN(c2ncccn2)CC1)c1n[nH]c2ccccc12 [Compound 8, N-(3-(4-(pyrimidin-2-yl)piperazin-1-yl)propyl)-1H-indazole-3-carboxamide]
Ki [1, 13]: 238 nM | Ki [2]: 807 nM | pKi 5-HT2A/pKi D2 [2]: 0.96 | Ki ([3]; read-out: Ki D2 (converted)): 480 nM

O=C(NCCCN1CCN(c2cccc(F)c2)CC1)c1n[nH]c2ccccc12 [Compound 10, N-(3-(4-(3-fluorophenyl)piperazin-1-yl)propyl)-1H-indazole-3-carboxamide]
Ki ([1]; mean ± SEM, read-out: pKi 5-HT1A (converted)): 112 nM | Ki [1, 13]: 114 nM | Ki [2]: 94.4 nM | pKi 5-HT2A/pKi D2 [2]: 1.07 | Effect on anxiety in EPM test (mice [8]): no statistically significant effect on the EPM performance | Effect on PA performance (memory acquisition) (mice [9]): no statistically significant effect on PA performance | inhibition at 10 µM (human 5-HT2A receptor): 96.8 ± 2% | Kb (human 5-HT2A receptor): 101 ± 31 nM | Effect on amphetamine-induced hyperactivity (mice [7]; 40 mg/kg i.p., 30 min before amphetamine 5 mg/kg s.c.): significantly reduced hyperactivity induced by amphetamine | Ki [4]: 1000 nM | Motor coordination (rota-rod) (mice [10]): lack of statistically significant difference | inhibition at 10 µM [5]: 0% | Ki (human 5-HT7 receptor): 589 nM | EC50 (human 5-HT1A receptor): 356 ± 83 nM | inhibition at 10 µM (human 5-HT1A receptor): 90.2 ± 4.1% | Ki [6]: 719 nM | Ki [11]: 181 nM | Kb (human D2S receptor): 31.2 nM | inhibition at 1 µM (human D2S receptor): 50.8 ± 5.4% | inhibition at 10 µM (human D2S receptor): 52.6 ± 9.8% | Spontaneous locomotor activity (mice [12]): did not induce statistically significant changes
